Source: PubChem BioAssay (NCI)
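1) Cells in 96-well plates. 2) Compound, 48 h, 5 concentrations. 3) Linear interpolation between surrounding doses. 4) Unreached endpoint = highest concentration. TGI: total growth inhibition.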

Experiments:
Experiment in all cases: growth of human tumour cells (NCI), 48 h
SW-620 colon = system: SW-620 colon
EKVX NSCLC = system: EKVX NSCLC
SR leukemia = system: SR leukemia
SN12C renal = system: SN12C renal
RPMI-8226 leukemia = system: RPMI-8226 leukemia
SF-268 CNS = system: SF-268 CNS
U251 CNS = system: U251 CNS
CCRF-CEM leukemia = system: CCRF-CEM leukemia
NCI-H460 lung = system: NCI-H460 lung
786-0 renal = system: 786-0 renal
M14 melanoma = system: M14 melanoma
UACC-257 melanoma = system: UACC-257 melanoma
RXF 393 renal = system: RXF 393 renal
MDA-MB-435 = system: MDA-MB-435
HCT-116 colon = system: HCT-116 colon
BT-549 breast = system: BT-549 breast
A498 renal = system: A498 renal
HCT-15 colon = system: HCT-15 colon
MOLT-4 leukemia = system: MOLT-4 leukemia
SF-539 CNS = system: SF-539 CNS
OVCAR-8 ovarian = system: OVCAR-8 ovarian
HL-60(TB) leukemia = system: HL-60(TB) leukemia
PC-3 prostate = system: PC-3 prostate
SNB-19 CNS = system: SNB-19 CNS
HOP-62 NSCLC = system: HOP-62 NSCLC
SK-MEL-28 melanoma = system: SK-MEL-28 melanoma
ACHN renal = system: ACHN renal
OVCAR-5 ovarian = system: OVCAR-5 ovarian
MALME-3M melanoma = system: MALME-3M melanoma
MDA-N = system: MDA-N
DU-145 prostate = system: DU-145 prostate
COLO 205 colon = system: COLO 205 colon
A549 NSCLC = system: A549 NSCLC
HOP-92 NSCLC = system: HOP-92 NSCLC
NCI/ADR-RES ovarian = system: NCI/ADR-RES ovarian
NCI-H226 lung = system: NCI-H226 lung
TK-10 renal = system: TK-10 renal
K-562 leukemia = system: K-562 leukemia
HCC-2998 colon = system: HCC-2998 colon
KM12 colon = system: KM12 colon
SF-295 CNS = system: SF-295 CNS
MCF7 breast = system: MCF7 breast
UO-31 renal = system: UO-31 renal
OVCAR-3 ovarian = system: OVCAR-3 ovarian
NCI-H23 lung = system: NCI-H23 lung
T-47D breast = system: T-47D breast
HT29 colon = system: HT29 colon
NCI-H522 lung = system: NCI-H522 lung
IGROV1 ovarian = system: IGROV1 ovarian
SK-OV-3 ovarian = system: SK-OV-3 ovarian
UACC-62 melanoma = system: UACC-62 melanoma
HS 578T breast = system: HS 578T breast
CAKI-1 renal = system: CAKI-1 renal
SK-MEL-5 melanoma = system: SK-MEL-5 melanoma
OVCAR-4 ovarian = system: OVCAR-4 ovarian
MDA-MB-231 breast = system: MDA-MB-231 breast
SK-MEL-2 melanoma = system: SK-MEL-2 melanoma

Measured: TGI

Cc1cc(C)c(NS(=O)c2ccc(Cl)cc2)c(C)c1 (stereo unspecified)
not listed: NCI-H522 lung | IGROV1 ovarian | SK-OV-3 ovarian | UACC-62 melanoma | HS 578T breast | CAKI-1 renal | SK-MEL-5 melanoma | OVCAR-4 ovarian | MDA-MB-231 breast | SK-MEL-2 melanoma
> 100 µM: all other assays above

COc1nc(=O)[nH]c2c1C(c1ccc([N+](=O)[O-])cc1)c1c(OC)nc(=O)[nH]c1O2
not listed: SR leukemia | SF-539 CNS | MALME-3M melanoma | HOP-92 NSCLC | K-562 leukemia | HCC-2998 colon | MCF7 breast | T-47D breast
> 100 µM: all other assays above
